Source: patent US11365204B2, “Substituted dihydrothienopyrimidines and their use as phosphodiesterase inhibitors” (UNION therapeutics A/S, priority 2017, dated 2022)
pIC50: −log10 of the molar value.

Experiments:
[1] = target: human PDE4D catalytic domain (UniProt no. Q08499 [S380-L740]) (Homo sapiens (Human), UniProt Q08499); experiment: PDE4 assay (TR-FRET, cAMP hydrolysis); assay type: biochemical; settings: read-out: PDE4 IC50 range
Description: The human PDE4D catalytic domain (UniProt no. Q08499 [S380-L740]) was incubated with a mixture of non-labelled cAMP (cyclic adenosine monophosphate) and fluorescein amidite (FAM) conjugated cAMP and titrated test or reference compound.
Following brief incubation the enzymatic reaction was stopped by addition of binding buffer containing nanoparticles with immobilized trivalent metal ions capable of binding 1) AMP phospho groups and 2) terbium (Tb) donor fluorophores. Subsequent excitation of the Tb donor triggered time-resolved FRET to adjacent FAM acceptor molecules resulting in light emission. In the presence of a PDE4 inhibitor, AMP generation was reduced resulting in a lower fluorescence signal. The cAMP phosphodiester is not bound by the detection system.
Results were expressed as IC50 values (nM) calculated from inhibition curves where the TR-FRET signal was normalized to Tb fluorescence intensity and the negative (DMSO vehicle) and positive (10 microM a PDE4 inhibitor reference compound) controls.

[2] = test system: Human peripheral blood mononuclear cells (PBMC); experiment: TNF-α release from LPS-stimulated PBMC; assay type: cell-based; settings: Lipopolysaccharide 1 microg/ml, 18 hours, AlphaLISA, read-out: TNF-α IC50 range
Description: Human peripheral blood mononuclear cells (PBMC) were isolated from fresh buffy coats by density centrifugation using lymphoprep tubes (Medinor). Frozen PBMC's were washed in serum free assay buffer (RPMI1640 with 25 mM HEPES, 1% pen/strep, […] L glutamine, 0.5% human serum albumin) and living cells counted. Lipopolysaccharide (1 microg/ml; SIGMA) was added to the cells which were then transferred to 384 well tissue culture plates ([…]) containing titrated test compounds. The cells were incubated for 18 hours at 37° C. in serum free assay buffer and the level of TNFalpha in the supernatant was quantitated by AlphaLISA (PerkinElmer) by measuring fluorescence intensity at 615 nm.
Results were expressed as IC50 values calculated from inhibition curves using as controls the secretion in LPS stimulated wells and the secretion in cells incubated with 10 microM of a PDE4 inhibitor reference compound.

Chain of human PDE4D catalytic domain (Q08499 380-740): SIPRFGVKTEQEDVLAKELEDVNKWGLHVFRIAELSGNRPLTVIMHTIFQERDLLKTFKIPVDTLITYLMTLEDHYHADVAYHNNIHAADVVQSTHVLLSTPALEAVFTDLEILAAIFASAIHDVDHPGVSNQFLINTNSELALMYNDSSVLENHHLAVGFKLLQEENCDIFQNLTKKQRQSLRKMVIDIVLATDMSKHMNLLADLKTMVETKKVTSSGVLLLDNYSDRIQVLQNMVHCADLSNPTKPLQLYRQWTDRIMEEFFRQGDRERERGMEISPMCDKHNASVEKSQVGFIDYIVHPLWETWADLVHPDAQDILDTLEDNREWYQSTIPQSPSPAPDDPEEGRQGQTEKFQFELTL

`CCc1nc(C(=O)OC2CN(c3nc4c(c(N(C)C5CCOCC5)n3)[S+]([O-])CC4)C2)co1` (stereo not drawn) [Example 33, [1-[4-[methyl(tetra-hydropyran-4-yl)amino]-5-oxido-6,7-dihydro-thieno[3,2-d]pyrimidin-5-ium-2-yl]azetidin-3-yl] 2-ethyloxazole-4-carboxylate] was tested, and the pIC50 [1] was > 7.00 and the pIC50 [2] was > 7.00.

`O=C(OC1CN(c2nc3c(c(NC4CCOCC4)n2)[S@@+]([O-])CC3)C1)C1CCOCC1` [Example 12, [1-[(5R)-5-oxido-4-(tetrahydropyran-4-ylamino)-6,7-dihydrothieno[3,2-d]pyrimidin-5-ium-2-yl]azetidin-3-yl] tetrahydropyran-4-carboxylate] was tested, and the pIC50 [1] was 6.30 to 7.00 and the pIC50 [2] was > 7.00.

`Cc1cc(C(=O)OC2CN(c3nc4c(c(N(C)C5CCOCC5)n3)[S+](O)CC4)C2)cc(C)n1` (stereo not drawn) [Example 41, [1-[4-[methyl(tetra-hydropyran-4-yl)amino]-5-oxido-6,7-dihydro-thieno[3,2-d]pyrimidin-5-ium-2-yl]azetidin-3-yl] 2,6-dimethylpyridine-4-carboxylate] was tested, and the pIC50 [1] was > 7.00 and the pIC50 [2] was > 7.00.

For `CN(c1nc(N2CC(OC(=O)C3CC(O)C3)C2)nc2c1[S+]([O-])CC2)C1CCOCC1` (stereo not drawn) [Example 14, [1-[4-[methyl(tetra-hydropyran-4-yl)amino]-5-oxido-6,7-dihydro-thieno[3,2-d]pyrimidin-5-ium-2-yl]azetidin-3-yl] 3-hydroxycyclobutane-carboxylate], the pIC50 [1] was 6.30 to 7.00 and the pIC50 [2] was 6.30 to 7.00.

In the case of `CN(c1nc(N2CC(OC(=O)c3ccccc3F)C2)nc2c1[S+]([O-])CC2)C1CCOCC1` (stereo not drawn) [Example 29, [1-[4-[methyl(tetra-hydropyran-4-yl)amino]-5-oxido-6,7-dihydro-thieno[3,2-d]pyrimidin-5-ium-2-yl]azetidin-3-yl] 2-fluorobenzoate], the pIC50 [1] was > 7.00 and the pIC50 [2] was > 7.00.

For `O=C(OC1CN(c2nc3c(c(NC4CC5(COC5)C4)n2)[S+](O)CC3)C1)c1cscn1` (stereo not drawn) [Example 66, [1-[4-(6-oxaspiro[3.3]-heptan-2-ylamino)-5-oxido-6,7-dihydrothieno-[3,2-d]pyrimidin-5-ium-2-yl]azetidin-3-yl] thiazole-4-carboxylate], the pIC50 [1] was > 7.00 and the pIC50 [2] was > 7.00.

`CN(c1nc(N2CC(OC(=O)[C@H]3CC[C@H](O)CC3)C2)nc2c1[S+](O)CC2)C1CCOCC1` (stereo partly drawn) [Example 39, [1-[4-[methyl(tetra-hydropyran-4-yl)amino]-5-oxido-6,7-dihydro-thieno[3,2-d]pyrimidin-5-ium-2-yl]azetidin-3-yl] 4-hydroxycyclohexane-carboxylate] was tested, and the pIC50 [1] was > 7.00 and the pIC50 [2] was > 7.00.

For `O=C(OC1CN(c2nc3c(c(NC4CCOCC4)n2)[S@@+]([O-])CC3)C1)c1cscn1` [Example 2, [1-[(5R)-5-Oxido-4-(tetrahydropyran-4-ylamino)-6,7-dihydrothieno[3,2-d]pyrimidin-5-ium-2-yl]azetidin-3-yl] thiazole-4-carboxylate], the pIC50 [1] was > 7.00 and the pIC50 [2] was > 7.00.

For `CC(=O)N1CC[C@@H](Nc2nc(N3CC(OC(=O)C4CCOCC4)C3)nc3c2[S@+](O)CC3)C1` [Example 75, [1-[4-[[(3R)-1-acetyl-pyrrolidin-3-yl]amino]-5-oxido-6,7-dihydro-thieno[3,2-d]pyrimidin-5-ium-2-yl]azetidin-3-yl] tetrahydropyran-4-carboxylate], the pIC50 [1] was < 6.30 and the pIC50 [2] was < 6.30.

With `O=C(OC1CN(c2nc3c(c(NC4CC5(COC5)C4)n2)[S@@+]([O-])CC3)C1)c1cscn1` (single isomer, unassigned) [Example 70] the pIC50 [1] was > 7.00 and the pIC50 [2] was > 7.00.

In the case of `CN(c1nc(N2CC(OC(=O)c3ccccc3)C2)nc2c1[S+]([O-])CC2)C1CCOCC1` (stereo not drawn) [Example 16, [1-[4-[methyl(tetra-hydropyran-4-yl)amino]-5-oxido-6,7-dihydro-thieno[3,2-d]pyrimidin-5-ium-2-yl]azetidin-3-yl] benzoate], the pIC50 [1] was > 7.00 and the pIC50 [2] was > 7.00.

`CN(c1nc(N2CC(OC(=O)C3CCS(=O)(=O)CC3)C2)nc2c1[S+](O)CC2)C1CCOCC1` (stereo not drawn) [Example 50, [1-[4-[methyl(tetra-hydropyran-4-yl)amino]-5-oxido-6,7-dihydro-thieno[3,2-d]pyrimidin-5-ium-2-yl]azetidin-3-yl] 1,1-dioxothiane-4-carboxylate] showed a pIC50 [1] of 6.30 to 7.00 and a pIC50 [2] of 6.30 to 7.00.

In the case of `Cc1nc(C(=O)OC2CN(c3nc4c(c(N(C)C5CCOCC5)n3)[S+]([O-])CC4)C2)cs1` (stereo not drawn) [Example 35, [1-[4-[methyl(tetra-hydropyran-4-yl)amino]-5-oxido-6,7-dihydro-thieno[3,2-d]pyrimidin-5-ium-2-yl]azetidin-3-yl] 2-methylthiazole-4-carboxylate], the pIC50 [1] was > 7.00 and the pIC50 [2] was > 7.00.

`CN(c1nc(N2CC(OC(=O)[C@H]3CC[C@@H](O)CC3)C2)nc2c1[S+](O)CC2)C1CCOCC1` (stereo partly drawn) [Example 38, [1-[4-[methyl(tetra-hydropyran-4-yl)amino]-5-oxido-6,7-dihydro-thieno[3,2-d]pyrimidin-5-ium-2-yl]azetidin-3-yl] 4-hydroxycyclohexane-carboxylate] was tested, and the pIC50 [1] was > 7.00 and the pIC50 [2] was > 7.00.

In the case of `CN(c1nc(N2CC(OC(=O)c3ccc(S(C)(=O)=O)cc3)C2)nc2c1[S+](O)CC2)C1CCOCC1` (stereo not drawn) [Example 54, [1-[4-[methyl(tetra-hydropyran-4-yl)amino]-5-oxido-6,7-dihydro-thieno[3,2-d]pyrimidin-5-ium-2-yl]azetidin-3-yl] 4-methylsulfonyl-benzoate], the pIC50 [1] was > 7.00 and the pIC50 [2] was > 7.00.

`O=C(OC1CN(c2nc3c(c(NC4CC5(COC5)C4)n2)[S+]([O-])CC3)C1)c1cnsc1` (racemic) [Example 65, [1-[4-(6-oxaspiro[3.3]-heptan-2-ylamino)-5-oxido-6,7-dihydrothieno-[3,2-d]pyrimidin-5-ium-2-yl]azetidin-3-yl] isothia-zole-4-carboxylate] was tested, and the pIC50 [1] was > 7.00 and the pIC50 [2] was > 7.00.

`CC(C)S(=O)(=O)c1ccc(C(=O)OC2CN(c3nc4c(c(N(C)C5CCOCC5)n3)[S+]([O-])CC4)C2)cc1` (stereo not drawn) [Example 60, [1-[4-[methyl(tetra-hydropyran-4-yl)amino]-5-oxido-6,7-dihydro-thieno[3,2-d]pyrimidin-5-ium-2-yl]azetidin-3-yl] 4-isopropylsulfonyl-benzoate] was tested, and the pIC50 [1] was > 7.00 and the pIC50 [2] was > 7.00.

For `CCn1ccc(C(=O)OC2CN(c3nc4c(c(N(C)C5CCOCC5)n3)[S+]([O-])CC4)C2)n1` (stereo not drawn) [Example 30, [1-[4-[methyl(tetra-hydropyran-4-yl)amino]-5-oxido-6,7-dihydro-thieno[3,2-d]pyrimidin-5-ium-2-yl]azetidin-3-yl] 1-ethylpyrazole-3-carboxylate], the pIC50 [1] was > 7.00 and the pIC50 [2] was > 7.00.

With `Cc1ccc(C(=O)OC2CN(c3nc4c(c(N(C)C5CCOCC5)n3)[S@+](O)CC4)C2)cc1` [Example 64, [1-[(5R)-4-[methyl-(tetrahydropyran-4-yl)amino]-5-oxido-6,7-dihydrothieno[3,2-d]pyrimidin-5-ium-2-yl]azetidin-3-yl] 4-methylbenzoate] the pIC50 [1] was > 7.00 and the pIC50 [2] was > 7.00.

`CCc1cc(C(=O)OC2CN(c3nc4c(c(N(C)C5CCOCC5)n3)[S+]([O-])CC4)C2)nn1C` (stereo not drawn) [Example 45, [1-[4-[methyl(tetra-hydropyran-4-yl)amino]-5-oxido-6,7-dihydro-thieno[3,2-d]pyrimidin-5-ium-2-yl]azetidin-3-yl] 5-ethyl-1-methyl-pyrazole-3-carboxylate] was tested, and the pIC50 [1] was > 7.00 and the pIC50 [2] was > 7.00.

In the case of `CC(=O)c1cccc(C(=O)OC2CN(c3nc4c(c(N(C)C5CCOCC5)n3)[S+](O)CC4)C2)c1` (stereo not drawn) [Example 47, [1-[4-[methyl(tetra-hydropyran-4-yl)amino]-5-oxido-6,7-dihydro-thieno[3,2-d]pyrimidin-5-ium-2-yl]azetidin-3-yl] 3-acetylbenzoate], the pIC50 [1] was > 7.00 and the pIC50 [2] was > 7.00.

In the case of `O=C(OC1CN(c2nc3c(c(NC4CCOCC4)n2)[S@@+]([O-])CC3)C1)c1cnsc1` [Example 1, [1-[(5R)-5-Oxido-4-(tetrahydropyran-4-ylamino)-6,7-dihydrothieno[3,2-d]pyrimidin-5-ium-2-yl]azetidin-3-yl] isothiazole-4-carboxylate], the pIC50 [1] was > 7.00 and the pIC50 [2] was > 7.00.

In the case of `CCS(=O)(=O)c1ccc(C(=O)OC2CN(c3nc4c(c(N(C)C5CCOCC5)n3)[S+]([O-])CC4)C2)cc1` (stereo not drawn) [Example 57, [1-[4-[methyl(tetra-hydropyran-4-yl)amino]-5-oxido-6,7-dihydro-thieno[3,2-d]pyrimidin-5-ium-2-yl]azetidin-3-yl] 4-ethylsulfonylbenzoate], the pIC50 [1] was > 7.00 and the pIC50 [2] was > 7.00.

With `CCCN(c1nc(N2CC(OC(=O)c3cscn3)C2)nc2c1[S+]([O-])CC2)C1CCOCC1` (stereo not drawn) [Example 10, [1-[4-[Propyl(tetrahydropyran-4-yl)amino]-5-oxido-6,7-dihydrothieno[3,2-d]pyrimidin-5-ium-2-yl]azetidin-3-yl] thiazole-4-carboxylate] the pIC50 [1] was < 6.30 and the pIC50 [2] was < 6.30.
